This note sets out measurements from ChEMBL document CHEMBL5260811, “Drug development against tuberculosis: Impact of alkaloids” (Eur J Med Chem, 2017).

One experiment concerns Mycobacterium tuberculosis. As to the kind of experiment: Antimycobacterial activity against Mycobacterium tuberculosis H37Rv. The class given is functional.
Details: not given
By MIC is commonly meant the lowest concentration that inhibits growth of the organism. A low value points to greater potency. Molecule `CC(=O)C[C@@H]1C[C@H]2[C@H]([C@@H]3c4[nH]c5ccccc5c4CCN13)[C@H](O)C13CC/C=C\CCCCN1C[C@@]21CC/C=C\CCCCN[C@@H]31` showed an MIC of 5.2 µg/mL.

Regarding `COC1=CC(=O)c2nc3ccccc3c3ccnc1c23`, the MIC stood at 1.5 µM. This lies in the single-digit micromolar range.

Turning to `Cc1ccc(SC2=CC(=O)c3nc4ccccc4c4ccnc2c34)cc1`, the MIC was determined as 9 µM.

In turn, `O=C1C(c2ccc(O)cc2)=C(c2ccc(O)cc2)C(=O)N1CCc1ccc(O)cc1` returned an MIC of 16 µg/mL.

Consider `C=C1c2[nH]cc(Br)c2[C@H]2NC(N)=N[C@]23CCCN13`, for which the MIC was found to be 64 µg/mL. Against the preceding molecule, the MIC is about 4-fold higher.

`C=C[C@@]1(C)[C@H](Cl)C[C@@H]2C(C)(C)c3cccc4[nH]c5c(c34)[C@@]2(O)[C@]1(C#N)C=CC5(C)C` had an MIC of 2.8 µg/mL. Compared with the last molecule, the MIC is about 23-fold lower.

Turning to `CO/N=c1\[nH]cnc2c1[n+](C/C=C(\C)CC/C=C(\C)CCC1CCCCC1)cn2C.[Cl-]`, 1.56 µg/mL was the least that counted as inhibitory (MIC).

`Cc1ccc(SC2=CC(=O)c3nc4ccccc4c(C)c3C2=O)cc1` displayed an MIC of 2.2 µM.

`c1cc2c[n+](c1)CCCCCCCCCCCCCc1ccc[n+](c1)CCCCCCCCCCCCC2` had an MIC of 4 µg/mL.

For `CC1CCC(=NNC(=O)c2[nH]c3ccc(F)cc3c2-c2ccccc2)CC1` (stereo not drawn), the MIC was found to be 6.25 µg/mL.

`C=C1CCCC(C)(C)[C@H]1CC/C(C)=C/CC/C(C)=C/C[n+]1cn(C)c2nc[nH]/c(=N\OC)c21.[Cl-]`: it took 3 µg/mL to inhibit growth (MIC).

`Nc1c(Br)cc(O)c(CC(=O)O)c1Br` had an MIC of 15.9 µg/mL.

Molecule `COc1cc2c(cc1OC)C(CC(C)=O)N(C)c1c-2ccc2cc3c(cc12)OCO3` (stereo not drawn) registered an MIC of 6.2 µg/mL.

Molecule `C=C1CC[C@@]2(C#N)[C@H]3[C@H](CC[C@@H]2C)[C@@H](C)C[C@@H](CC(C)(C)NC(=O)CN2CCC2=O)[C@H]13` yielded an MIC of 15.3 µg/mL.

In the case of `CC[C@@H](CO)NCCN[C@@H](CC)CO` [ETHAMBUTOL], the MIC came to 5.61 µg/mL.

`CCCCCCCCC/C=C/C=C/C(=O)NCC(C)C` yielded an MIC of 6.2 µg/mL.

`C=C[C@]1(C)C/C=C(/C#N)C(C)(C)c2[nH]c3cccc4c3c2C(=C)[C@H](CC1Cl)C4(C)C` (stereo partly drawn): inhibition of growth (MIC) required 53.7 µM.

On to `CC(=O)C[C@H]1C[C@H]2[C@H]([C@@H]3c4[nH]c5ccccc5c4CCN13)[C@H](O)C13CC/C=C\CCCCN1C[C@@]21CC/C=C\CCCCN[C@@H]31`, for which inhibition of growth (MIC) required 1.5 µg/mL.

For the molecule `C=C1CC[C@@]2(C#N)[C@H]3[C@H](CC[C@@H]2C)[C@@H](C)C[C@@H](CC(C)(C)C)[C@H]13`, the lowest concentration to inhibit growth (MIC) was 2 µg/mL.

Regarding `O=C1C(c2ccc(O)cc2)=C2C(=C(c3ccc(O)cc3)C(=O)N2CCc2ccc(O)cc2)c2ccc(O)cc21`, inhibition of growth (MIC) required 4 µg/mL.

For `Nc1nc(/C=C/CNC(=O)c2cc(Br)c[nH]2)c[nH]1`, the MIC stood at 6.1 µg/mL.

The molecule `O=C1C(c2ccc(O)cc2)=C(c2ccc(O)cc2)/C(=C/c2ccc(O)cc2)N1CCc1ccc(O)cc1` had an MIC of 32 µg/mL.

In the case of `Oc1ccc2[nH]c3c(C4=C[C@@]5(O)CC/C=C\CCCCN6CC[C@@H]4C4(C[C@@H]7/C=C\CCCCN7C45)C6)nccc3c2c1` (stereo partly drawn), the MIC was 1.9 µg/mL.

Turning to `COc1c(O)ccc2c1cnc1c3cc4c(cc3ccc21)OCO4` [DECARINE], the minimal inhibitory concentration (MIC) is 3.1 µg/mL.

As for `CCSC1=CC(=O)c2nc3ccccc3c3ccnc1c23`, the MIC is 0.34 µM.

`CO/N=c1\[nH]cnc2c1[n+](C/C=C(\C)CC/C=C(\C)CC/C=C(\C)CCC=C(C)C)cn2C.[Cl-]` gave an MIC of 3.13 µg/mL.

In the next experiment the test system is Mycobacterium tuberculosis. Kind of experiment: Antimycobacterial activity against Mycobacterium tuberculosis. The class given is functional.
Details: not given
The molecule `C=C[C@H]1C=C[C@H]2[C@@H]3C[C@H](C)CC[C@H]3[C@@H]3Oc4ccc(cc4)C[C@@H]4C(=O)NC(=O)[C@H]4C(=O)[C@@H]1[C@H]23` displayed an IC of 0.78 µg/mL.

Regarding `C=C[C@H]1C=C[C@H]2[C@@H]3C[C@H](C)CC[C@H]3[C@@H]3Oc4ccc(cc4)C[C@]4(O)NC(=O)[C@]5(O[C@H]54)C(=O)[C@@H]1[C@H]23`, the IC was determined as 0.78 µg/mL.

As to `C=C[C@H]1C=C[C@H]2[C@@H]3C[C@H](C)CC[C@H]3[C@@H]3Oc4ccc(cc4)C[C@@]4(O)C[C@H](C(=O)N4)C(=O)[C@@H]1[C@H]23`, the IC worked out at 0.78 µg/mL.

In the case of `CO/N=c1\[n-]cnc2c1[n+](C/C=C(\C)CC/C=C(\C)CCC1=C(C)CCCC1(C)C)cn2C`, the IC worked out at 6.25 µg/mL.

With `C/C=C/[C@H]1C=C[C@H]2[C@@H]3C[C@H](C)CC[C@H]3[C@@H]3Oc4ccc(cc4)C[C@@H]4C(=O)NC(=O)[C@H]4C(=O)[C@@H]1[C@H]23`, the IC worked out at 3.125 µg/mL.

Regarding `CC1=C(CC/C(C)=C/CC/C(C)=C/C[n+]2cn(C)c3nc[n-]/c(=N\OC(C)(C)C)c32)C(C)(C)CCC1`, the IC came out at 6.25 µg/mL.

Still in this experiment, the particulars now being: Mycobacterium tuberculosis.
Molecule `[C-]#[N+][C@]12C=CC(C)(C)c3[nH]c4cccc5c4c3[C@]1(O)[C@H](CC[C@]2(C)C=C)C5(C)C` [AMBIGUINE L ISONITRILE] yielded an MIC of 4.5 µg/mL.

`[C-]#[N+][C@]12[C@H]3O[C@H]3C(C)(C)c3[nH]c4cccc5c4c3[C@]1(O)[C@H](CC[C@]2(C)C=C)C5(C)C` gave an MIC of 13.1 µM.

Consider `CC(=O)NCCC1=C2Nc3ccccc3C3C=CN=C(C4=C1SCO4)C23` (stereo not drawn), for which the lowest concentration to inhibit growth (MIC) was 17 µM.

For the molecule `[C-]#[N+][C@@H]1[C@@H]2c3c[nH]c4cccc(c34)C(C)(C)[C@H]2C[C@@H](Cl)[C@]1(C)C=C` [HAPALINDOLE G], the MIC is 6.8 µM.

`COc1c(O)c2c3c(c1OC)CCN[C@H]3Cc1cc3c(cc1-2)OCO3` had an MIC of 64 µg/mL.

Molecule `COc1ccc2c(c[n+](C)c3c4cc5c(cc4ccc23)OCO5)c1OC.[Cl-]` [CHELERYTHRINE CHLORIDE] registered an MIC of 14.3 µg/mL.

For `CCCC/C=C\CCCCc1cc(=O)c2ccccc2n1C`, it took 2 µg/mL to inhibit growth (MIC).

With `c1cc2c[n+](c1)CCCCCCCCCCCCc1ccc[n+](c1)CCCCCCCCCCC2`, the MIC stood at 9.3 µg/mL.

`[C-]#[N+][C@@H]1[C@@H]2c3c(C(C)(C)C=C)[nH]c4cccc(c34)C(C)(C)[C@H]2C[C@@H](Cl)[C@]1(C)C=C` [AMBIGUINE A ISONITRILE] had an MIC of 46.7 µM.

Regarding `CCCCC/C=C\C/C=C\CCCCc1cc(=O)c2ccccc2n1C`, the MIC is 2 µg/mL.

In the case of `CN(Cc1cc(Br)cc(Br)c1N)C1CCCCC1` [BROMHEXINE], the MIC was 6 µg/mL.

The molecule `COc1ccc(CCC2CCc3ccccc3N2C)cc1OC` (stereo not drawn) came in with an MIC of 6.25 µg/mL.

Take `[C-]#[N+][C@]12[C@H]3O[C@H]3C(C)(C)c3[nH]c4cccc5c4c3[C@]1(O)[C@H](C[C@@H](Cl)[C@]2(C)C=C)C5(C)C` [AMBIGUINE E ISONITRILE]: the MIC worked out at 21 µM.

`CN(C)c1ccc(C2C(Cl)C(=O)N2NC(=O)c2cc(O)c(O)c(O)c2)cc1` (stereo not drawn) had an MIC of 0.62 µg/mL.

Regarding `CCCC/C=C\CCCCCCc1cc(=O)c2ccccc2n1C`, 2 µg/mL was the least that counted as inhibitory (MIC).

`CC(=O)NCCC1C2=C3C(=NC=CC3c3ccccc3N2)C2=C1SCC(=O)N2` (stereo not drawn): the MIC is 32 µM. This counts as double-digit micromolar.

Molecule `c1cc2c[n+](c1)CCCCCCCCCCCCCCc1ccc[n+](c1)CCCCCCCCCC2` came in with an MIC of 5.3 µg/mL.

`O=[N+]([O-])c1cn2c(n1)OC[C@@H](OCc1ccc(OC(F)(F)F)cc1)C2` [PRETOMANID] gave an MIC of 0.015 µg/mL.

In the case of `[C-]#[N+][C@]12C[C@@H](O)C(C)(C)c3[nH]c4cccc5c4c3[C@]1(O)[C@H](C[C@@H](Cl)[C@]2(C)C=C)C5(C)C` [AMBIGUINE M ISONITRILE], inhibition of growth (MIC) required 3.3 µg/mL.

As for `O=C(NN1C(=O)C(Cl)C1c1cccc(Cl)c1)c1cc(O)c(O)c(O)c1` (stereo not drawn), the MIC came out at 0.57 µg/mL.

`CO[C@H]1/C=C/O[C@@]2(C)Oc3c(C)c(O)c4c(O)c(c(/C=N/N5CCN(C6CCCC6)CC5)c(O)c4c3C2=O)NC(=O)/C(C)=C\C=C\[C@H](C)[C@H](O)[C@@H](C)[C@@H](O)[C@@H](C)[C@H](OC(C)=O)[C@@H]1C` [RIFAPENTINE] came in with an MIC of 0.02 µg/mL.

`Cn1c(=O)ccc2ccccc21` displayed an MIC of 6.25 µg/mL.

`c1cc2c[n+](c1)CCCCCCCCCCCCc1ccc[n+](c1)CCCCCCCCCC2` gave an MIC of 4.6 µg/mL.

Molecule `O=[N+]([O-])c1cn2c(n1)OC[C@@H](OCc1ccc(-c3ccc(OC(F)(F)F)cc3)nc1)C2` [TBA-354] came in with an MIC of 0.34 µg/mL.

With `[C-]#[N+][C@@H]1[C@]2(O)c3c(C(C)(C)C=C)[nH]c4cccc(c34)C(C)(C)[C@H]2CC[C@]1(C)C=C` [AMBIGUINE C ISONITRILE], the MIC came to 7 µM.

In turn, `COC(=O)N1CCc2c(OC)c(OC)c(O)c3c2[C@@H]1Cc1cc2c(cc1-3)OCO2` displayed an MIC of 128 µg/mL.

Molecule `C[n+]1cc2c3c(ccc2c2ccc4cc5c(cc4c21)OCO5)OCO3.[Cl-]` [SANGUINARIUM CHLORIDE] had an MIC of 24.5 µg/mL.

Regarding `O=C(NN1C(=O)C(Cl)C1c1ccc(Cl)cc1)c1cc(O)c(O)c(O)c1` (stereo not drawn), the MIC was found to be 0.83 µg/mL.

`COC(=O)c1ccc2[nH]c3ccccc3c2c1` yielded an MIC of 50 µg/mL.

Molecule `CCCCCCCCCCCc1cc(=O)c2ccccc2n1C` registered an MIC of 2 µg/mL.

Turning to `CC(=O)NCCC1C2=C3C(=NC=CC3c3ccccc3N2)c2ncsc21` (stereo not drawn), the MIC was found to be 34 µM.

On to `Nc1c(Br)cc(Br)cc1CN[C@H]1CC[C@H](O)CC1` [AMBROXOL], for which inhibition of growth (MIC) required 6 µg/mL.

`O=C(NN1C(=O)C(Cl)C1c1ccccc1Cl)c1cc(O)c(O)c(O)c1` (stereo not drawn) returned an MIC of 0.76 µg/mL. This MIC is about 7.9-fold lower than that of the molecule before.

Take `C=CC(C)(C)c1[nH]c2c(CC=C(C)C)cc(CC=C(C)C)cc2c1C[C@@H]1NC(=O)[C@H](C)NC1=O` [ECHINULIN]: the MIC stood at 170 µg/mL.

The molecule `c1cc2c[n+](c1)CCCCCCCCCCCCCCc1ccc[n+](c1)CCCCCCCCCCC2` showed an MIC of 4.6 µg/mL.

Molecule `[C-]#[N+][C@@H]1[C@H]2c3c[nH]c4cccc(c34)C(C)(C)[C@@H]2CC[C@]1(C)C=C` [HAPALINDOLE H] displayed an MIC of 58.8 µM.

As for `CCCCC/C=C\C/C=C\CCc1cc(=O)c2ccccc2n1C`, the MIC turned out to be 2 µg/mL.

Turning to `COc1ccc2c(c1)[nH]c1cc(OC)c(C(=O)O)cc12` [CLAUSINE K], the MIC was found to be 100 µg/mL.

As to `c1cc2c[n+](c1)CCCCCCCCCCCCCc1ccc[n+](c1)CCCCCCCCCC2`, 6.6 µg/mL was the least that counted as inhibitory (MIC). This MIC lies about 15-fold lower than the previous one.

For `COc1c(O)c2c3c(c1OC)CCN[C@H]3Cc1cc3c(cc1-2)OCO3.Cl`, the MIC is 4 µg/mL.

`[C-]#[N+][C@]12C[C@@H](O)C(C)(C)c3[nH]c4cccc5c4c3[C@]1(O)[C@H](CC[C@]2(C)C=C)C5(C)C` [AMBIGUINE N ISONITRILE] came in with an MIC of 10.9 µg/mL. This MIC is about 2.7-fold higher than that of the molecule before.
